Reference: the NIST ThermoML archive (doi:10.1021/je060457+)

Key:
[1] = refractive index (Na D-line) (dimensionless); conditions: 101.33 kPa, Liquid, Standard Abbe refractometry
[2] = 101 kPa, Liquid; for viscosity: Capillary tube (Ostwald / Ubbelohde) method; for mass density: Vibrating tube method
[3] = refractive index (Na D-line) (dimensionless); xn = mol fraction of the nth substance listed; conditions: 101 kPa, Liquid, Standard Abbe refractometry, x2 = 0
[4] = xn = mol fraction of the nth substance listed; conditions: 101 kPa, Liquid, x2 = 0; for viscosity: Capillary tube (Ostwald / Ubbelohde) method; for mass density: Vibrating tube method

CNCCO [2-(methylamino)ethanol]
Conditions	mass density, [2] [kg/m3]	refractive index, [1]	viscosity, [2] [mPa·s]
293.15 K	–	1.4393	–
298.15 K	936.18	1.4375	10.51
303.15 K	932.26	1.4356	8.522
308.15 K	–	1.4339	–
313.15 K	924.42	1.4318	5.833
318.15 K	–	1.4298	–
323.15 K	916.48	1.4278	4.177
333.15 K	908.46	–	3.108
343.15 K	900.3	–	2.385

O [water] + CNCCO
Conditions	mass density, [4] [kg/m3]	refractive index, [3]	viscosity, [4] [mPa·s]
293.15 K	–	1.3331	–
298.15 K	–	1.3326	0.8824
303.15 K	–	1.332	0.8047
308.15 K	–	1.3314	–
313.15 K	992.26	1.3307	0.6596
318.15 K	–	1.3299	–
323.15 K	988.05	1.3291	0.5507
333.15 K	983.19	–	0.4703
343.15 K	977.78	–	0.4074
